{"source": "paper PMC12064818", "about": "“A general assay platform to study protein pharmacology using ligand-dependent structural dynamics” (Nature Communications, 2025)", "target": "firefly luciferase (FLuc) (Photinus pyralis, UniProt P08659)", "sequence (P08659 whole entry)": "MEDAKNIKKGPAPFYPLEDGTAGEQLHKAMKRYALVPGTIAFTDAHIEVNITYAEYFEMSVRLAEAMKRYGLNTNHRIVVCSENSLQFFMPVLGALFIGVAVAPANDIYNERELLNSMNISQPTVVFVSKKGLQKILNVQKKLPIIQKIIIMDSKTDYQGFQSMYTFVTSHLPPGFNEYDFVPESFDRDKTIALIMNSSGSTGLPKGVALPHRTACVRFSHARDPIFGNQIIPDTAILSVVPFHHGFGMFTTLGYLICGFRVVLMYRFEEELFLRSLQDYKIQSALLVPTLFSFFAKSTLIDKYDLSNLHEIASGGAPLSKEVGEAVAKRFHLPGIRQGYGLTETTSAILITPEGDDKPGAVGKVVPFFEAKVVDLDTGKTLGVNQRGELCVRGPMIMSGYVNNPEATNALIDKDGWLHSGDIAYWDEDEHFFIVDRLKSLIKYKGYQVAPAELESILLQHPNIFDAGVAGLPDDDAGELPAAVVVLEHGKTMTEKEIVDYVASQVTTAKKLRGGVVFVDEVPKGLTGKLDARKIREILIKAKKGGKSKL", "assay": "Thermal shift profiles (Thermofluor assay), FLuc;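 on Thermofluor FLuc, No ATP: normalized first derivative of fluorescence (dF/dT) at the stated temperature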", "type": "binding", "parameters": "unit of the concentration uncertain", "settings": "compound 100 (unit uncertain); for Thermofluor FLuc, ATP: ATP (2 (unit uncertain))"}
{"smiles": "CC(CNC(=O)C1CCN(C(=O)c2ncn3c2COC(c2ccccc2)C3)CC1)c1ccccc1", "note": "(centres unmarked) [NCGC 00449795]", "values": [{"measurement": "Thermofluor FLuc, No ATP", "setting": "20.000 °C", "value": 0.224}, {"measurement": "Thermofluor FLuc, ATP", "setting": "20.000 °C", "value": 0.781}, {"measurement": "Thermofluor FLuc, No ATP", "setting": "20.993 °C", "value": 0.114}, {"measurement": "Thermofluor FLuc, ATP", "setting": "20.993 °C", "value": 0.794}, {"measurement": "Thermofluor FLuc, No ATP", "setting": "21.987 °C", "value": 0.126}, {"measurement": "Thermofluor FLuc, ATP", "setting": "21.987 °C", "value": 0.808}, {"measurement": "Thermofluor FLuc, No ATP", "setting": "22.980 °C", "value": 0.133}, {"measurement": "Thermofluor FLuc, ATP", "setting": "22.980 °C", "value": 0.818}, {"measurement": "Thermofluor FLuc, No ATP", "setting": "23.974 °C", "value": 0.087}, {"measurement": "Thermofluor FLuc, ATP", "setting": "23.974 °C", "value": 0.824}, {"measurement": "Thermofluor FLuc, No ATP", "setting": "24.967 °C", "value": 0.106}, {"measurement": "Thermofluor FLuc, ATP", "setting": "24.967 °C", "value": 0.824}, {"measurement": "Thermofluor FLuc, No ATP", "setting": "25.960 °C", "value": 0.064}, {"measurement": "Thermofluor FLuc, ATP", "setting": "25.960 °C", "value": 0.818}, {"measurement": "Thermofluor FLuc, No ATP", "setting": "26.954 °C", "value": 0.085}, {"measurement": "Thermofluor FLuc, ATP", "setting": "26.954 °C", "value": 0.807}, {"measurement": "Thermofluor FLuc, No ATP", "setting": "27.947 °C", "value": 0.040}, {"measurement": "Thermofluor FLuc, ATP", "setting": "27.947 °C", "value": 0.794}, {"measurement": "Thermofluor FLuc, No ATP", "setting": "28.940 °C", "value": 0.026}, {"measurement": "Thermofluor FLuc, ATP", "setting": "28.940 °C", "value": 0.78}, {"measurement": "Thermofluor FLuc, No ATP", "setting": "29.934 °C", "value": 0.058}, {"measurement": "Thermofluor FLuc, ATP", "setting": "29.934 °C", "value": 0.768}, {"measurement": "Thermofluor FLuc, No ATP", "setting": "30.927 °C", "value": 0.042}, {"measurement": "Thermofluor FLuc, ATP", "setting": "30.927 °C", "value": 0.757}, {"measurement": "Thermofluor FLuc, No ATP", "setting": "31.921 °C", "value": 0.056}, {"measurement": "Thermofluor FLuc, ATP", "setting": "31.921 °C", "value": 0.744}, {"measurement": "Thermofluor FLuc, No ATP", "setting": "32.914 °C", "value": 0.053}, {"measurement": "Thermofluor FLuc, ATP", "setting": "32.914 °C", "value": 0.724}, {"measurement": "Thermofluor FLuc, No ATP", "setting": "33.907 °C", "value": 0.025}, {"measurement": "Thermofluor FLuc, ATP", "setting": "33.907 °C", "value": 0.688}, {"measurement": "Thermofluor FLuc, No ATP", "setting": "34.901 °C", "value": 0.000}, {"measurement": "Thermofluor FLuc, ATP", "setting": "34.901 °C", "value": 0.633}, {"measurement": "Thermofluor FLuc, No ATP", "setting": "35.894 °C", "value": 0.005}, {"measurement": "Thermofluor FLuc, ATP", "setting": "35.894 °C", "value": 0.557}, {"measurement": "Thermofluor FLuc, No ATP", "setting": "36.887 °C", "value": 0.023}, {"measurement": "Thermofluor FLuc, ATP", "setting": "36.887 °C", "value": 0.463}, {"measurement": "Thermofluor FLuc, No ATP", "setting": "37.881 °C", "value": 0.061}, {"measurement": "Thermofluor FLuc, ATP", "setting": "37.881 °C", "value": 0.358}, {"measurement": "Thermofluor FLuc, No ATP", "setting": "38.874 °C", "value": 0.092}, {"measurement": "Thermofluor FLuc, ATP", "setting": "38.874 °C", "value": 0.252}, {"measurement": "Thermofluor FLuc, No ATP", "setting": "39.868 °C", "value": 0.154}, {"measurement": "Thermofluor FLuc, ATP", "setting": "39.868 °C", "value": 0.156}, {"measurement": "Thermofluor FLuc, No ATP", "setting": "40.861 °C", "value": 0.218}, {"measurement": "Thermofluor FLuc, ATP", "setting": "40.861 °C", "value": 0.078}, {"measurement": "Thermofluor FLuc, No ATP", "setting": "41.854 °C", "value": 0.347}, {"measurement": "Thermofluor FLuc, ATP", "setting": "41.854 °C", "value": 0.026}, {"measurement": "Thermofluor FLuc, No ATP", "setting": "42.848 °C", "value": 0.433}, {"measurement": "Thermofluor FLuc, ATP", "setting": "42.848 °C", "value": 0}, {"measurement": "Thermofluor FLuc, No ATP", "setting": "43.841 °C", "value": 0.514}, {"measurement": "Thermofluor FLuc, ATP", "setting": "43.841 °C", "value": 0}, {"measurement": "Thermofluor FLuc, No ATP", "setting": "44.835 °C", "value": 0.555}, {"measurement": "Thermofluor FLuc, ATP", "setting": "44.835 °C", "value": 0.021}, {"measurement": "Thermofluor FLuc, No ATP", "setting": "45.828 °C", "value": 0.658}, {"measurement": "Thermofluor FLuc, ATP", "setting": "45.828 °C", "value": 0.057}, {"measurement": "Thermofluor FLuc, No ATP", "setting": "46.821 °C", "value": 0.723}, {"measurement": "Thermofluor FLuc, ATP", "setting": "46.821 °C", "value": 0.105}, {"measurement": "Thermofluor FLuc, No ATP", "setting": "47.815 °C", "value": 0.793}, {"measurement": "Thermofluor FLuc, ATP", "setting": "47.815 °C", "value": 0.162}, {"measurement": "Thermofluor FLuc, No ATP", "setting": "48.808 °C", "value": 0.830}, {"measurement": "Thermofluor FLuc, ATP", "setting": "48.808 °C", "value": 0.225}, {"measurement": "Thermofluor FLuc, No ATP", "setting": "50.795 °C", "value": 0.929}, {"measurement": "Thermofluor FLuc, ATP", "setting": "50.795 °C", "value": 0.362}, {"measurement": "Thermofluor FLuc, No ATP", "setting": "51.788 °C", "value": 0.936}, {"measurement": "Thermofluor FLuc, ATP", "setting": "51.788 °C", "value": 0.434}, {"measurement": "Thermofluor FLuc, ATP", "setting": "52.782 °C", "value": 0.507}, {"measurement": "Thermofluor FLuc, No ATP", "setting": "53.775 °C", "value": 1.000}, {"measurement": "Thermofluor FLuc, ATP", "setting": "53.775 °C", "value": 0.578}, {"measurement": "Thermofluor FLuc, No ATP", "setting": "54.768 °C", "value": 0.997}, {"measurement": "Thermofluor FLuc, ATP", "setting": "54.768 °C", "value": 0.643}, {"measurement": "Thermofluor FLuc, No ATP", "setting": "55.762 °C", "value": 0.999}, {"measurement": "Thermofluor FLuc, ATP", "setting": "55.762 °C", "value": 0.699}, {"measurement": "Thermofluor FLuc, No ATP", "setting": "56.755 °C", "value": 0.989}, {"measurement": "Thermofluor FLuc, ATP", "setting": "56.755 °C", "value": 0.743}, {"measurement": "Thermofluor FLuc, No ATP", "setting": "57.748 °C", "value": 0.966}, {"measurement": "Thermofluor FLuc, ATP", "setting": "57.748 °C", "value": 0.774}, {"measurement": "Thermofluor FLuc, No ATP", "setting": "58.742 °C", "value": 0.936}, {"measurement": "Thermofluor FLuc, ATP", "setting": "58.742 °C", "value": 0.793}, {"measurement": "Thermofluor FLuc, No ATP", "setting": "59.735 °C", "value": 0.945}, {"measurement": "Thermofluor FLuc, ATP", "setting": "59.735 °C", "value": 0.802}, {"measurement": "Thermofluor FLuc, No ATP", "setting": "60.729 °C", "value": 0.960}, {"measurement": "Thermofluor FLuc, ATP", "setting": "60.729 °C", "value": 0.805}, {"measurement": "Thermofluor FLuc, No ATP", "setting": "61.722 °C", "value": 0.919}, {"measurement": "Thermofluor FLuc, ATP", "setting": "61.722 °C", "value": 0.804}, {"measurement": "Thermofluor FLuc, No ATP", "setting": "62.715 °C", "value": 0.915}, {"measurement": "Thermofluor FLuc, ATP", "setting": "62.715 °C", "value": 0.801}, {"measurement": "Thermofluor FLuc, No ATP", "setting": "63.709 °C", "value": 0.911}, {"measurement": "Thermofluor FLuc, ATP", "setting": "63.709 °C", "value": 0.797}, {"measurement": "Thermofluor FLuc, No ATP", "setting": "65.695 °C", "value": 0.892}, {"measurement": "Thermofluor FLuc, ATP", "setting": "65.695 °C", "value": 0.793}, {"measurement": "Thermofluor FLuc, No ATP", "setting": "66.689 °C", "value": 0.889}, {"measurement": "Thermofluor FLuc, ATP", "setting": "66.689 °C", "value": 0.799}, {"measurement": "Thermofluor FLuc, No ATP", "setting": "68.676 °C", "value": 0.909}, {"measurement": "Thermofluor FLuc, ATP", "setting": "68.676 °C", "value": 0.827}, {"measurement": "Thermofluor FLuc, No ATP", "setting": "69.669 °C", "value": 0.830}, {"measurement": "Thermofluor FLuc, ATP", "setting": "69.669 °C", "value": 0.847}, {"measurement": "Thermofluor FLuc, No ATP", "setting": "70.662 °C", "value": 0.839}, {"measurement": "Thermofluor FLuc, ATP", "setting": "70.662 °C", "value": 0.865}, {"measurement": "Thermofluor FLuc, No ATP", "setting": "71.656 °C", "value": 0.811}, {"measurement": "Thermofluor FLuc, ATP", "setting": "71.656 °C", "value": 0.881}, {"measurement": "Thermofluor FLuc, No ATP", "setting": "72.649 °C", "value": 0.810}, {"measurement": "Thermofluor FLuc, ATP", "setting": "72.649 °C", "value": 0.893}, {"measurement": "Thermofluor FLuc, No ATP", "setting": "73.643 °C", "value": 0.758}, {"measurement": "Thermofluor FLuc, ATP", "setting": "73.643 °C", "value": 0.901}, {"measurement": "Thermofluor FLuc, No ATP", "setting": "74.636 °C", "value": 0.788}, {"measurement": "Thermofluor FLuc, ATP", "setting": "74.636 °C", "value": 0.906}, {"measurement": "Thermofluor FLuc, No ATP", "setting": "75.629 °C", "value": 0.714}, {"measurement": "Thermofluor FLuc, ATP", "setting": "75.629 °C", "value": 0.91}]}
